pIC50: −log10 of the molar value.
Assays:
human PDHK2 (hPDHK2) = molecular target: T1, human PDHK2 (hPDHK2) (Homo sapiens, UniProt Q15119); test: Inhibitory action of PDHK2 activity in vitro (residual PDH activity after kinase reaction); type: biochemical; settings: PDH/hPDHK2 complex, 45 min kinase reaction at room temperature; read-out: hPDHK2 IC50
T1 construct: made in house; host or cells: Escherichia coli BL21(DE3), pET17b vector
Procedure: The inhibitory action of PDHK activity was assessed indirectly by measuring the residual PDH activity after kinase reaction in the presence of a test compound.
In the case of human PDHK2 (hPDHK2, Genbank Accession No. BC040478.1), modified hPDHK2 cDNA wherein FLAG-Tag sequence was added to the N terminus of hPDHK2 cDNA clone (pReceiver-M01/PDK2-GeneCopoeia) was prepared by PCR and cloned into a vector (pET17b-Novagen). The recombinant construct was transformed into Escherichia coli (DH5α-TOYOBO). The recombinant clones were identified, and plasmid DNA was isolated and subjected to the DNA sequence analysis. One clone which had the expected nucleic acid sequence was selected for expression work.
For expression of hPDHK2 activity, Escherichia coli strain BL21(DE3) cells (Novagen) were transformed with the pET17b vector containing modified hPDHK2 cDNA. The Escherichia coli were grown to an optical density 0.6 ([…]) at 30° C. Protein expression was induced by the addition of 500 μmol/L isopropyl-β-thiogalactopyranoside. The Escherichia coli were cultured at 30° C. for 5 hr and harvested by centrifugation. Resuspension of the Escherichia coli paste was disrupted by a microfluidizer. FLAG-Tagged protein was purified using FLAG affinity gel. The gel was washed with 20 mmol/L HEPES-NaOH, 500 mmol/L sodium chloride, 1% ethylene glycol, and 0.1% Pluronic F-68 (pH 8.0), and the binding protein was eluted with 20 mmol/L HEPES-NaOH, 100 μg/mL FLAG peptide, 500 mmol/L sodium chloride, 1% ethylene glycol, and 0.1% Pluronic F-68 (pH 8.0). The eluted fractions containing FLAG-Tagged protein were pooled, dialyzed against 20 mmol/L HEPES-NaOH, 150 mmol/L sodium chloride, 0.5 mmol/L EDTA, 1% ethylene glycol, and 0.1% Pluronic F-68 (pH 8.0), and preserved at −80° C.
0.05 U/mL PDH and 0.8 μg/mL hPDHK2 were mixed in a buffer (50 mmol/L 3-morpholinopropanesulfonic acid (pH 7.0), 20 mmol/L dipotassium hydrogen phosphate, 60 mmol/L potassium chloride, 2 mmol/L magnesium chloride, 0.4 mmol/L EDTA, and 0.2% Pluronic F-68, 2 mmol/L dithiothreitol), and the mixture was incubated at 4° C. overnight to obtain a PDH/hPDHK2 complex. The test compounds were diluted with DMSO. […] DMSO (1.5 μL) was added to control wells instead of the test compound. […] The mixture was incubated at room temperature for 90 min, and the residual PDH activity was measured. The absorbance at 340 nm before and after PDH reaction was measured using a microplate reader to detect NADH produced by the PDH reaction. The hPDHK2 inhibition rate (%) of the test compound was calculated from the formula [{(PDH activity of test compound−PDH activity of control)/PDH activity of blank−PDH activity of control)}×100].

tissue PDH activity = test: Ex vivo PDH activation assay (liver and epididymal adipose tissue mitochondrial fractions after oral dosing); type: in vivo, Sprague-Dawley rats; settings: 3 mg/kg, rat
Procedure: The action of test compound on tissue PDH activity was evaluated. NADH production was detected via p-iodonitrotetrazolium violet (INT)-coupled system to measure PDH activity.
Normal male Sprague-Dawley rats were randomly allocated m to the vehicle group and the test compound groups. The vehicle (0.5% aqueous methylcellulose solution, 5 mL/kg) or the test compound was orally administered to the rats. At 5 or 20 hr after administration, the rats were anesthetized with an intraperitoneal injection of sodium pentobarbital (60 mg/kg), and liver slices and epididymal adipose tissues were collected.
(§1) To the liver slices were rapidly added 9 volumes of ice-cold homogenization buffer (0.25 mol/L sucrose, 5 mmol/L tris(hydroxymethyl)aminomethane hydrochloride (pH 7.5), 2 mmol/L EDTA), and the mixtures were homogenized using a Polytron homogenizer. The homogenates were centrifuged at 600×g, 4° C. for 10 min to obtain the supernatant. The supernatants (1 mL) were centrifuged at 16,000×g, 4° C. for 10 min to collect the precipitates. The precipitates were washed by resuspension in the homogenization buffer (1 mL) and centrifuged in the same manner. The precipitates were frozen with liquid nitrogen and stored at −80° C. as the liver mitochondrial fraction.
as §1, with “adipose tissues” for “liver slices”, “3” for “9”, “of an” for “of”, “buffer,” for “buffer (0.25 mol/L sucrose, 5 mmol/L tris(hydroxymethyl)aminomethane hydrochloride (pH 7.5), 2 mmol/L EDTA),”, “supernatants” for “supernatants (1 mL)”, “adipose tissue” for “liver”
The mitochondrial fractions were thawed and suspended with the sample buffer (0.25 mol/L sucrose, 20 mmol/L tris(hydroxymethyl)aminomethane hydrochloride (pH 7.5), 50 mmol/L potassium chloride, and 1 mL/L 4-(1,1,3,3-tetramethylbutyl)phenyl-polyethylene glycol (Triton X-100)). Active PDH activity (PDHa activity) and total PDH activity (PDHt activity) were measured to evaluate the PDH activity. For the measurement of the PDHt activity, equal amounts of the mitochondrial suspension and the activation buffer (0.25 mol/L sucrose, 20 mmol/L tris(hydroxymethyl)aminomethane hydrochloride (pH 7.5), 50 mmol/L potassium chloride, 1 mL/L Triton X-100, 4 mmol/L calcium chloride, 40 mmol/L magnesium chloride, 10 mmol/L sodium dichloroacetate) were mixed, and the mixtures were incubated at 37° C. for 10 min. Forty microliters of the mitochondrial suspensions diluted with a sample buffer were added to a 96-well microplate for activity measurement and blank measurement. Then 180 μL of the reaction mixture (0.056 mmol/L potassium phosphate buffer (pH 7.5), 5.6 mmol/L DL-carnitine, 2.8 mmol/L NAD, 0.22 mmol/L thiamin pyrophosphate, 0.11 mmol/L Coenzyme A, 1.1 mL/L Triton X-100, 1.1 mmol/L magnesium chloride, 1.1 g/L bovine serum albumin, 0.67 mmol/L INT, 7.2 μmol/L phenazine methosulfate, 28 mmol/L sodium oxamate) was added to each well, and then 20 μL of 50 mmol/L sodium pyruvate for activity measurement or water for blank measurement were added. The mixtures were incubated at room temperature under shading. The absorbances at 500-750 nm, which were attributable to reduction of INT, the final electron acceptor, were measured using a microplate reader over time and the changes in the absorbance were calculated. The PDH activity was calculated by subtraction of the change in absorbance of the blank well from that of the activity measurement well. The percentage of the PDHa activity to the PDHt activity was calculated and taken as an index of the PDH activation.

[1] = Metabolic stability test in human liver microsome; type: in vitro ADME; settings: 37° C., 5 μM
Procedure: Human liver microsome (manufactured by Xenotech, H0620, final concentration (after dilution), 0.2 mg protein/mL) was suspended in 100 mM potassium phosphate buffer (pH 7.4, containing β-nicotinamide adenine dinucleotide phosphate: 1.3 mM, D-glucose-6-phosphate: 3.3 mM, magnesium chloride: 3.3 mM, glucose-6-phosphate dehydrogenase: 0.45 U/mL), and further mixed with a test compound dissolved in MeCN/DMSO (95/5) (final concentration 5 μM). The mixture was incubated at 37° C. for 10 min and 60 min, acetonitrile containing formic acid (final concentration 0.1%) was added, and the mixture was centrifuged. The test compound (unmodified) in the supernatant was measured by high performance liquid chromatography/mass spectrometry (LC/MS) (manufactured by Waters, LC: Acquity UPLC, MS:SQ Detector or TQ Detector). The residual ratio (%) was calculated from the obtained measurement value.

[2] = Metabolic stability test in rat liver microsome; type: in vitro ADME
hERG = molecular target: T2, hERG (Homo sapiens, UniProt Q12809); test: hERG whole cell patch clamp test; type: cell-based; settings: human, HEK293 cells transfected with hERG, pH 7.4, read-out: hERG inhibition rate (%); for inhibition at 3 μmol/L: concentration 3 μmol/L; for inhibition at 30 μmol/L: concentration 30 μmol/L
T2 construct: host or cells: HEK293
Procedure: (§2) Using human ether-a-go-go related gene (hERG)-transfected HEK293 cells (Cytomyx Limited), an influence on hERG current was examined according to the whole cell patch clamp technique. The hERG-transfected HEK293 cells were passaged using a CO2 incubator (BNA-111, TABAI ESPEC CORP.) under the set conditions of 37° C., 5% CO2, saturated humidity. Culture containers used were Collagen Type I Coated 75 cm^2 flask (4123-010, AGC TECHNO GLASS CO., Ltd.) and Collagen Type I Coated 35 mm culture dish (4000-010, AGC TECHNO GLASS CO., Ltd.). The culture medium used was E-MEM (Eagle Minimum Essential Medium (Earle's Salts, Nikken biomedical laboratory) added with 10% FCS (Fetal bovine serum, BioWest, L.L.C.) and 1% MEM Non-Essential Amino Acids Solution (NEAA, Invitrogen Corporation). Geneticin for the selection of hERG gene expressing cells was added thereto to a concentration of 400 μg/mL. As the cells for the measurement, 3×10^4 hERG-transfected HEK293 cells were plated on a 35 mm culture dish 4 to 7 days before measurement of the hERG current. The culture dish produced for the measurement contained the above-mentioned culture medium without geneticin (Invitrogen Corporation).
(§3) The highest evaluation concentration of each compound was determined from the highest concentration at which precipitation was not found in the standard extracellular fluid (NaCl: 140 mmol/L, KCl: 2.5 mmol/L, MgCl2: 2 mmol/L, CaCl2: 2 mmol/L, HEPES: 10 mmol/L, glucose: 10 mmol/L (adjusted to pH 7.4 with Tris-base)). As the application method, each solution to be applied was ejected from a Y-tube having a tip diameter of about 0.25 mm, which was adjacent (about 2 mm) to the cells, and applied to the cells. The ejection rate was about 0.4 mL/min.
(§4) The experiment was performed at room temperature under a phase contrast microscope. The 35 mm culture dish plated with the cells was set on a measurement apparatus, and the standard extracellular fluid was continuously applied to the cells from the Y-tube. A glass electrode for the measurement was filled with an intracellular fluid (Potassium Gluconate: 130 mmol/L, KCl: 20 mmol/L, MgCl2: 1 mmol/L, ATP-Mg: 5 mmol/L, EGTA: 3.5 mmol/L, HEPES: 10 mmol/L (adjusted to pH 7.2 with Tris-base)). A conventional whole cell patch clamp method was applied to the cells, and the maintenance electric potential was set to −80 mV. Under a fixed electric potential, the whole cell current was amplified by an amplifier for patch clamp (AXOPATCH-200B, Axon Instruments, Inc.), and the data was loaded into a computer (IMC-P642400, Intermedical Co., Ltd.) using a data acquisition analysis software (pCLAMP 9.2, Axon Instruments, Inc.).
(§5) The measurement of the hERG current was performed in the following two steps. In both cases, the hERG current was initiated by giving a command potential (maintenance electric potential −80 mV, prepulse+20 mV, 1.5 sec, test-pulse −50 mV, 1.5 sec).
(§6) Step (1): The above-mentioned command potential was given at 0.1 Hz for 2 min.
(§7) Step (2): The above-mentioned command potential was subjected to P/3 subtraction of pCLAMP 9.2 to remove leak current. This was repeated three times and an average thereof was taken as hERG current.
(§8) Subsequent to step (1), Step (2) was performed (about 3 min), and the maximum tail current obtained by applying a test-pulse to the hERG current obtained by the method of step (2) was taken as hERG current value. Hereafter, the operations of (1) and (2) were alternately repeated until completion of the experiment and the hERG current value was measured.
(§9) Stable hERG current value was recorded three times (about 10 min), and the standard extracellular fluid was instantaneously exchanged with each application fluid. The hERG current value was measured three times (about 10 min) in the same manner during perfusion of the application fluid, and the current value obtained by the 3rd measurement was taken as hERG current value after perfusion of the application fluid. […]

[3] = molecular target: T3, hERG current (hERG-transfected HEK293 cells) (Homo sapiens, UniProt Q12809); test: hERG whole cell patch clamp test; type: cell-based; settings: whole cell patch clamp, hERG-transfected HEK293 cells
T3 construct: host or cells: HEK293
Procedure: as §2, §3, §4, §5, §6, §7, §8, §9

T2 sequence (Q12809 whole entry): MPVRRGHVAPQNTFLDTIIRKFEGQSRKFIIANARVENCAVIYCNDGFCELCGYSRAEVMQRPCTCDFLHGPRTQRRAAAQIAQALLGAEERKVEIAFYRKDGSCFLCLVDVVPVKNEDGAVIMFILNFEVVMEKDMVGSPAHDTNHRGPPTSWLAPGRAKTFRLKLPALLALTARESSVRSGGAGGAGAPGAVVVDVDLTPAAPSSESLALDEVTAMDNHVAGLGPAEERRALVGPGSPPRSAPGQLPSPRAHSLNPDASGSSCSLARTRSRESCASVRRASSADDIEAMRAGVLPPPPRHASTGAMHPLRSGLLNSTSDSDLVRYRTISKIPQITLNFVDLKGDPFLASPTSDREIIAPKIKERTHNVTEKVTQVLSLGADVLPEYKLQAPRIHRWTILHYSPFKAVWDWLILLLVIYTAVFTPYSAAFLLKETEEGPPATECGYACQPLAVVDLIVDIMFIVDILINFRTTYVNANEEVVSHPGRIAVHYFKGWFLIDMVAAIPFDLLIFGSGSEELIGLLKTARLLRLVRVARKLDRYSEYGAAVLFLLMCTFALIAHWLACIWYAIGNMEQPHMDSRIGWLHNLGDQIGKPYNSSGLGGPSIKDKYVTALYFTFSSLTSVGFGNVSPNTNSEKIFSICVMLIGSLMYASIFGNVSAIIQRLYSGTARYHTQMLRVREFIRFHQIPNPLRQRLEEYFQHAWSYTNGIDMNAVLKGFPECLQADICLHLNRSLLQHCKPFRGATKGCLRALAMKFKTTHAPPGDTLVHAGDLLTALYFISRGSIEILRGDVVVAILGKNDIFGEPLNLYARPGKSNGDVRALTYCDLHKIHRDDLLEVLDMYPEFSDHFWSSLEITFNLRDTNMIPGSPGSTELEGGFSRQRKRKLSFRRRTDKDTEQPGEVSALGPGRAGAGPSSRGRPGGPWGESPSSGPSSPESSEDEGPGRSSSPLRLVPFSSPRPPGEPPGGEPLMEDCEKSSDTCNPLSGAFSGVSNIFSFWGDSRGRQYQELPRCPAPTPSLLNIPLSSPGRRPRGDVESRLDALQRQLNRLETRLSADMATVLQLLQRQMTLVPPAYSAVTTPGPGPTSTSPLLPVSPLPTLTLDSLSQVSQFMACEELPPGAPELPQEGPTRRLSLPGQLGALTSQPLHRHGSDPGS
T3 sequence (Q12809 whole entry): as above

Row | pIC50 (human PDHK2 (hPDHK2)) | stability in liver microsome (residual ratio %) ([1]; 10 min) | stability in liver microsome (residual ratio %) ([1]; 60 min) | stability in liver microsome (residual ratio %) ([2]; 10 min) | stability in liver microsome (residual ratio %) ([2]; 60 min) | SMILES | PDHa activity (% PDHt activity) (tissue PDH activity; adipose tissue, 5 hr after oral administration) | PDHa activity (% PDHt activity) (tissue PDH activity; adipose tissue, 20 hr after oral administration) | PDHa activity (% PDHt activity) (tissue PDH activity; liver, 5 hr after oral administration) | PDHa activity (% PDHt activity) (tissue PDH activity; liver, 20 hr after oral administration) | inhibition at 3 μmol/L (hERG) | inhibition at 30 μmol/L (hERG) | pIC50 [3]
1 | 8.33 | 98.3% | 99.7% | 99.2% | 99.8% | C[C@@H](O)COc1cc(-c2cnn(C(C)(C)C(N)=O)c2)c2c(c1)[C@@](O)(C(F)(F)F)c1ccccc1-2 [compound (3), 2-(4-{(9R)-9-hydroxy-2-[(2R)-2-hydroxypropoxy]-9-(trifluoromethyl)-9H-fluoren-4-yl}-1H-pyrazol-1-yl)-2-methylpropanamide] | 59 ± 8 % PDHt activity | 54 % PDHt activity | 74 ± 11 % PDHt activity | 42 % PDHt activity |  |  | 
2 |  |  |  |  |  | CC(C)(O)COc1cc(-c2cnn(CCO)c2)c2c(c1)[C@@](O)(C(F)(F)F)c1ccccc1-2 [compound (C), (9R)-4-[1-(2-Hydroxyethyl)-1H-pyrazol-4-yl]-2-(2-hydroxy-2-methylpropoxy)-9-(trifluoromethyl)-9H-fluoren-9-ol] |  |  |  |  | 11.5% | 69% | 4.88
3 |  |  |  |  |  | CC(C)(C(N)=O)n1cc(-c2cc(F)cc3c2-c2ccccc2[C@]3(O)C(F)(F)F)cn1 [compound (D), 2-{4-[(9R)-2-Fluoro-9-hydroxy-9-(trifluoromethyl)-9H-fluoren-4-yl]-1H-pyrazol-1-yl}-2-methylpropanamide] |  |  |  |  | 9.4% | 67.5% | 4.85
